Measurements as given in publication PMC11220827 (Frontiers in Pharmacology, 2024).
Read-outs that look alike come from different tables or passages of the source.

Assays:
HepG2 cells = assay: cells; assay type: cell-based
Transthyretin (TTR) = Transthyretin (TTR) (Homo sapiens, UniProt P02766); conditions: reference
Experimental: DMSO (1% compound stock in incubation mixture). The incubation mixture was transferred to 96 -
was measured on a Berthold luminometer.
(§1) Serial dilutions of the compounds were incubated in Tris -buffer (pH 8.0) overnight at 4°C in the
(§2) incubation mixture). After incubation, TTR-bound and free T4 were separated on a Bio-Gel P-6DG
(§3) column. The eluate was added to assay medium after which TRβ CALUX cells were exposed for 24 h
(see CALUX bioassays). For this TRβ CALUX exposure, serum-free assay medium was used.

[1] = target: T1, human thyroid peroxidase (hTPO) (Homo sapiens, UniProt P07202); conditions: reference
T1 sequence (P07202 19-933): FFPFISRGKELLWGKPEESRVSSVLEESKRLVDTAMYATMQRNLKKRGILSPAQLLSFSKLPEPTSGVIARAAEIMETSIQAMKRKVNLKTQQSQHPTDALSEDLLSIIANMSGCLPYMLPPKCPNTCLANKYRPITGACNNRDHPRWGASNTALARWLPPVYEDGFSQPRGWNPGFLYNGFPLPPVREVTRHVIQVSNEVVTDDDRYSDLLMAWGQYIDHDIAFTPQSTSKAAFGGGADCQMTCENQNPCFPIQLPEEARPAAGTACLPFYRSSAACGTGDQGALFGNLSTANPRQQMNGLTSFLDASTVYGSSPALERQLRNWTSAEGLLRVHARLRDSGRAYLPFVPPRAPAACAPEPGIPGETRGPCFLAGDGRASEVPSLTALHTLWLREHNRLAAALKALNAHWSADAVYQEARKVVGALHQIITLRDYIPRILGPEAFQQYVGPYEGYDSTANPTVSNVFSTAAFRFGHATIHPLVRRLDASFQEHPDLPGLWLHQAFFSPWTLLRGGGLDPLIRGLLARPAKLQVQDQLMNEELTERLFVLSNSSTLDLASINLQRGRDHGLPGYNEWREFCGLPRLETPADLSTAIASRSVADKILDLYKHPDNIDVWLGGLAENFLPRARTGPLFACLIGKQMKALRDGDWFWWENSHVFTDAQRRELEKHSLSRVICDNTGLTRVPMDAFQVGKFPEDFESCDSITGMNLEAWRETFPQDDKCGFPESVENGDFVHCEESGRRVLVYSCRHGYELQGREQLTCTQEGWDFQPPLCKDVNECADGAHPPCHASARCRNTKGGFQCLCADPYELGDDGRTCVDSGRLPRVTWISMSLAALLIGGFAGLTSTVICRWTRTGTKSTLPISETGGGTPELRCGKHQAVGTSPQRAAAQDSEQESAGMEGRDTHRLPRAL
Experimental: hTPO was derived from Nthy-ori 3-1 cells. Cell lysate containing hTPO in Glycine-NaOH buffer (pH
9.0) was incubated for 30 minutes at 37°C in the presence of serial dilutions of the compounds in
(§4) DMSO (1% compound stock in incubation mixture).
was measured on a Berthold luminometer.
(§5) Preincubation with rat liver S9 fraction
(§6) To assess the effect of metabolism on the activity of the test
compound for these assays, preincubations with rat liver S9 were performed.

H295R cells [2] = conditions: reference: Forskolin (↑), prochloraz (↓)
Experimental: as §4
was measured on a Berthold luminometer.
as §1, §2, §3
(§7) For this TRβ CALUX exposure, serum-free assay medium was used.
(§8) wells plates in assay medium, and exposed for 48h to a serial dilution of the compound in triplicate
(§9) exposure, the assay medium was analysed on the ERα and AR CALUX bioassays as described
(§10) Changes in hormone levels compared to a vehicle control exposure
as §5, §6
(§11) compound for these assays, preincubations with rat liver S9 were performed. Compounds (10 μl
(§12) DMSO stock solution) were incubated for 0 h (control) or 3 h (test condition) in a total volume of 1
(§13) ml TRIS buffer in the presence of 1% (v/v) PB/BNF induced rat liver S9 mix (including NADPH and
(§14) an NADPH-regenerating system). After incubation, the reaction was stopped by the addition of ice
(§15) cold acetone, and samples were frozen to stimulate protein precipitation. After thawing, the
(§16) precipitated protein fraction was subsequently removed by centrifugation. The supernatant, cont aining
(§17) the metabolites and any remaining non-metabolised parent compound, was concentrated under a
(§18) gentle nitrogen flow. After evaporating to dryness, the sample was taken up in 50 μl DMSO followed
(§19) by the addition of 50 μl TRIS buffer. This extract was used for the exposure of the hTPO inhibition,
(§20) Relative light units (RLUs) of the CALUX assays were analysed as follows. For agonist assays,
(§21) background values (exposure to DMSO only) were subtracted, and the maximum activity of the
(§22) assay’s reference compound was set to 100%. For antagonist assays, the basal signal (exposure to fixed concentration of agonist only) was set to 100%. Activity of the samples was scaled accordingly,
(§23) resulting in expression of the data as “percentage of maximum reference response”. Graphs were
(§24) generated using the statistical software package GraphPad Prism V5.03. Using these graphs, lowest
(§25) effect concentrations (LOECs) and PC50 concentrations were determined; LOEC is defined as the
(§26) maximum reference compound activity for agonist assays, and 20% of the maximum reference
(§27) compound activity for antagonist assays. The PC50 is defined as the concentration where the activity
(§28) of the sample equals 50% of the maximum activity of the assay’s reference compound.
(§29) the test compound was divided by the amount of estrogens and androgens produced by the solvent
(§30) control-exposed cells. A sample was considered ‘active’ if it decreased the hormone production 0.8-

H295R cells [3] = conditions: reference: Forskolin (↑), prochloraz (↓); remark: listed apart in the source
Experimental: as §4
was measured on a Berthold luminometer.
as §1, §2, §3, §7, §8, §9, §10, §5, §6, §11, §12, §13, §14, §15, §16, §17, §18, §19, §20, §21, §22, §23, §24, §25, §26, §27, §28, §29, §30

[4] = HepG2, 24 h, NR = No response observed

SMILES: CN[C@H]1CC[C@@H](c2ccc(Cl)c(Cl)c2)c2ccccc21 [Sertraline, reference compound]
- ER stress panel 2: PERK: Effect (HepG2 cells): increase
- Phospholipidosis: Effect (HepG2 cells): increase
- Steatosis: Effect (HepG2 cells): increase
- AC50 (HepG2 cells; Homo sapiens, HepG2, 24 h, read-out: ER stress panel 2: PERK: AC50): > 6.25 µM
- ER stress panel 2: PERK: MEC (HepG2 cells; human, 24 h): 2.17 µM
- Phospholipidosis: Fold increase (HepG2 cells; human, 24 h): 4.16
- Phospholipidosis: MEC (HepG2 cells; human, 24 h): 0.0965 µM
- Steatosis: Fold increase (HepG2 cells; human, 24 h): 2.02
- Steatosis: MEC (HepG2 cells; human, 24 h): 8.36 µM

SMILES: CC(C)(c1cc(Br)c(O)c(Br)c1)c1cc(Br)c(O)c(Br)c1 [Tetrabromobisphenol A, reference compound]
- TTR binding (thyroid) LOEC, reference compound (Transthyretin (TTR)): −7.9 Log M

SMILES: Cn1cc[nH]c1=S [Methimazole, reference compound]
- hTPO inhibition (thyroid) LOEC, reference compound [1]: −6.3 Log M

SMILES: C=C(C)[C@H]1Cc2c(ccc3c2O[C@@H]2COc4cc(OC)c(OC)cc4[C@@H]2C3=O)O1 [Rotenone, reference compound]
- Cellular ATP: MEC (HepG2 cells; HepG2, 24 h): < 0.04 µM
- LDH release: MEC (HepG2 cells; HepG2, 24 h): 0.138 µM
- Mitochondrial membrane potential: MEC (HepG2 cells; HepG2, 24 h): 0.00254 µM
- Oxidative stress (ROS): MEC (HepG2 cells; HepG2, 24 h): 0.681 µM
- Seahorse assay: Extracellular acidification rate (ECAR): MEC (HepG2 cells; HepG2, 24 h): 0.00546 µM
- Seahorse assay: oxygen consumption rate (OCR): MEC (HepG2 cells; HepG2, 24 h): 0.000832 µM
- Seahorse assay: reserve capacity: MEC (HepG2 cells; HepG2, 24 h): 0.000657 µM
- AC50 (HepG2 cells; Homo sapiens, HepG2, 24 h, read-out: Cellular ATP: AC50): 3.05 µM
- AC50 (HepG2 cells; Homo sapiens, HepG2, 24 h, read-out: LDH release: AC50): 57.6 µM
- AC50 (HepG2 cells; Homo sapiens, HepG2, 24 h, read-out: Mitochondrial membrane potential: AC50): 0.094 µM
- AC50 (HepG2 cells; Homo sapiens, HepG2, 24 h, read-out: Oxidative stress (ROS): AC50): > 100 µM
- AC50 (HepG2 cells; Homo sapiens, HepG2, 24 h, read-out: Seahorse assay: Extracellular acidification rate (ECAR): AC50): 0.00549 µM
- AC50 (HepG2 cells; Homo sapiens, HepG2, 24 h, read-out: Seahorse assay: oxygen consumption rate (OCR): AC50): 0.00432 µM
- AC50 (HepG2 cells; Homo sapiens, HepG2, 24 h, read-out: Seahorse assay: reserve capacity: AC50): 0.00248 µM

SMILES: CC(=O)N(O)CCCCCNC(=O)CCC(=O)N(O)CCCCCNC(=O)CCC(=O)N(O)CCCCCN.CS(=O)(=O)O [Deferoxamine mesylate salt, reference compound]
- Inflammation & pH: HIF1α: Effect (HepG2 cells): increase
- Inflammation & pH: HIF1α: MEC (HepG2 cells): 6.2 µM
- Inflammation & pH: ICAM-1: Effect (HepG2 cells): increase
- Inflammation & pH: ICAM-1: MEC (HepG2 cells): 17.4 µM
- Inflammation & pH: intracellular pH: Effect (HepG2 cells): increase
- Inflammation & pH: intracellular pH: MEC (HepG2 cells): 6.46 µM
- AC50 (HepG2 cells; HepG2, 24 h, read-out: Inflammation & pH: HIF1α: AC50): 4.31 µM
- AC50 (HepG2 cells; HepG2, 24 h, read-out: Inflammation & pH: ICAM-1: AC50): > 200 µM
- AC50 (HepG2 cells; HepG2, 24 h, read-out: Inflammation & pH: intracellular pH: AC50): > 200 µM

SMILES: [Cd+2].[Cl-].[Cl-] [Cadmium (II) chloride, reference compound]
- Metal stress: MTF1: MEC (HepG2 cells; HepG2, 24 h): 0.0751 µM
- Metal stress: metallothionein: MEC (HepG2 cells; HepG2, 24 h): 0.0751 µM
- Metal stress: MTF1: Effect (HepG2 cells; [4]): increase
- Metal stress: metallothionein: Effect (HepG2 cells; [4]): increase
- AC50 (HepG2 cells; HepG2, 24 h, read-out: Metal stress: MTF1: AC50): 7.05 µM
- AC50 (HepG2 cells; HepG2, 24 h, read-out: Metal stress: metallothionein: AC50): 7.05 µM

SMILES: CCCN(CCOc1c(Cl)cc(Cl)cc1Cl)C(=O)n1ccnc1 [prochloraz, reference compound]
- Steroidogenesis (ERα) 17β-estradiol LOEC, reference compound (H295R cells [2]): −6.0 Log M
- Steroidogenesis (AR) Testosterone LOEC, reference compound (H295R cells [3]): −6.0 Log M

SMILES: C=C[C@@]1(C)CC(=O)[C@]2(O)[C@@]3(C)[C@@H](O)CCC(C)(C)[C@@H]3[C@H](O)[C@H](OC(C)=O)[C@@]2(C)O1 [Forskolin, reference compound]
- Steroidogenesis (ERα) 17β-estradiol LOEC, reference compound (H295R cells [2]): −6.0 Log M
- Steroidogenesis (AR) Testosterone LOEC, reference compound (H295R cells [3]): −6.0 Log M

SMILES: CCCCS(=N)(=O)CCC(N)C(=O)O [L-BSO, reference compound]
- GSH content: Effect (HepG2 cells): decrease
- GSH content: MEC (HepG2 cells): 0.725 µM
- AC50 (HepG2 cells; HepG2, 24 h, read-out: GSH content: AC50): 37.5 µM
